This passage reports inhibition and IC50 results from patent US12448371B2, “Inhibitor compounds” (Cincera Therapeutics Pty Ltd, priority 2019, dated 2025).

Experiment [1] has as its system Connective Tissue Growth Factor (CTGF) gene expression. The experiment is described as follows: Real time quantitative PCR in TGFβ-stimulated human hepatic stellate cells (LX2) to detect CTGF gene expression. The experiment is classed as cell-based. The note with it: CTGF mRNA in TGFβ-stimulated LX2 cells vs vehicle control; for inhibition at 5 µM: LX-2, 5 μM; for inhibition at 1 µM: LX-2, 1 μM; for inhibition at 10 µM: LX-2, 10 μM. On the procedure: Real Time Quantitative Polymerase Chain Reaction in Human Hepatic Stellate Cells (LX2) to Detect Connective Tissue Growth Factor (CTGF) Gene Expression The hepatic stellate cell line, LX2 was maintained in DMEM (LifeTechnologies) with 2% heat-inactivated FBS, 100U penicillin (LifeTechnologies), 0.1 mg/mL streptomycin (LifeTechnologies), and 2 mM L-glutamine (LifeTechnologies) at 37° C. with 5% CO2. Cells were seeded into 6-well plates (200,000 cells per well, 2 mLs media) and grown overnight. The cells were changed to 2 mLs 0.5% FBS media for 24 hours prior to treatment. Treatments were added in 2 mLs fresh 0.5% FBS media (vehicle control, long/mL TGFβ alone (R&D Systems), 10 ng/mL TGFβ+inhibitors) and incubated for 24 hours. […] RNA was extracted using Qiagen RNeasy kit (cat #74104), according to manufacturer's instructions. RNA (1 μg) was used to generate cDNA using the Qiagen Quantitect Reverse Transcription Kit (cat #205311), and stored at -20° C. cDNA was diluted (1:25 final) and combined with Sybr Green (Qiagen cat #204143), forward and reverse primers (50 ng each) and run on Real Time PCR Thermocycler machine (RG-6000, Corbett) with the following PCR conditions: Hold 1: 50° C. for 2 min; Hold 2: 95° C. for 15 min; Cycling: 45 cycles of: 95° C. for 30 sec, 58° C. for 21 sec, 72° C. for 15 sec, Hold 3: 72° C. for 30 sec, Melt: 72° C. to 99° C. GAPDH primers (Forward: [NT]; Reverse: [NT] primers (Forward: [NT]; Reverse: [NT] primers available from Origene, cat #HP205671)].

The target of another experiment is T1, Des1 (h) (Homo sapiens, UniProt O15121).
T1 construct: endogenous in cells; host or cells: parental Jurkat cells
T1 sequence (O15121 1-323): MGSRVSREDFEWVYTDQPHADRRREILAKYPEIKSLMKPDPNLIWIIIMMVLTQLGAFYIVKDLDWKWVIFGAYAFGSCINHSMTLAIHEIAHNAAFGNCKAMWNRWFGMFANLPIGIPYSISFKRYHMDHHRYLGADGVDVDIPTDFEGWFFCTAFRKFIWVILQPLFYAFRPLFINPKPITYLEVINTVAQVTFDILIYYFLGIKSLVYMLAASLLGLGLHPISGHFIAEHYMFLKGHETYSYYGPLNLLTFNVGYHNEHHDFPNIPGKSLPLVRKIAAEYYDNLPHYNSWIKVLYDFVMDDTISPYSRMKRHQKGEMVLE
The experiment is described as follows: Measurement of Dihydroceramide Desaturase-1 (Des-1) activity in intact Jurkat cells labeled with DhCer-C6-NBD (HPLC). In kind it is cell-based. The note with it: for IC50: intact Jurkat cells, given as concentration range, or <X / >X if measured at one concentration X only, read-out: Des1 (h) Jurkat IC50; for inhibition at 1 µM: Jurkat cells. In outline: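 Intact parental Jurkat cells in 0.5% serum medium were labelled with DhCer-C6-NBD; cells harvested at 500×g and ceramides extracted. NBD-labelled substrate and product resolved by C18 reverse-phase HPLC and quantified by fluorescence (ex 465/em 530 nm) as a measure of Des-1 activity.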

Bounds are passed on as bounds.

In experiment [1], `N/C(=N\O)c1cnc(Nc2ncn(-c3ccc(C(F)(F)F)cn3)n2)cn1` [Compound 108, N′-Hydroxy-5-((1-(5-(trifluoromethyl)pyridin-2-yl)-1H-1,2,4-triazol-3-yl)amino)pyrazine-2-carboximidamide] had an inhibition at 5 µM of 40 to 50%. In addition, at Des1 (h), the 50% inhibitory concentration (IC50) is less than 1 µM.

`Cn1nc(Nc2ccc(/C(N)=N/O)nc2)cc1-c1ccc(C(F)(F)F)cn1` [Compound 109, N′-Hydroxy-5-((1-methyl-5-(5-(trifluoromethyl)pyridin-2-yl)-1H-pyrazol-3-yl)amino)picolinimidamide] gave an inhibition at 5 µM in experiment [1] greater than 90%. In addition, the IC50 at Des1 (h) is less than 1 µM.

Compound `N/C(=N\O)c1cnc(Nc2ccn(-c3ccc(C(F)(F)F)cc3)n2)cn1` [Compound 111, N′-Hydroxy-5-((1-(4-(trifluoromethyl)phenyl)-1H-pyrazol-3-yl)amino)pyrazine-2-carboximidamide] registered an inhibition at 5 µM in experiment [1] greater than 90%. Further, the IC50 at Des1 (h) was less than 1 µM.

In experiment [1], `N/C(=N\O)c1cnc(Nc2ccn(-c3ccc(C(F)(F)F)cn3)n2)cn1` [Compound 112, N′-Hydroxy-5-((1-(5-(trifluoromethyl)pyridin-2-yl)-1H-pyrazol-3-yl)amino)pyrazine-2-carboximidamide] registered an inhibition at 1 µM greater than 90%. In addition, the IC50 on Des1 (h) was less than 1 µM.

For `N/C(=N\O)c1ccc(Nc2cnn(-c3ccc(C(F)(F)F)cc3)c2)cn1` [Compound 113, N′-Hydroxy-5-((1-(4-(trifluoromethyl)phenyl)-1H-pyrazol-4-yl)amino)picolinimidamide], the inhibition at 5 µM in experiment [1] was greater than 90%. The IC50 on Des1 (h) is less than 1 µM.

In turn, `N/C(=N/O)c1ccc(Nc2cn(-c3ccc(C(F)(F)F)cn3)nn2)cn1` [Compound 115, N′-Hydroxy-5-((1-(5-(trifluoromethyl)pyridin-2-yl)-1H-1,2,3-triazol-4-yl)amino)picolinimidamide] came in with an inhibition at 5 µM in experiment [1] greater than 90%. Besides, the IC50 at Des1 (h) is less than 1 µM.

In experiment [1], `N/C(=N\O)c1ccc(Nc2ncc(-c3ccc(OC(F)(F)F)cc3)o2)cn1` [Compound 118, N′-Hydroxy-5-((5-(4-(trifluoromethoxy)phenyl)oxazol-2-yl)amino)picolinimidamide] came in with an inhibition at 1 µM of 50 to 60% and an inhibition at 10 µM of 70 to 80%. In addition, the half-inhibitory concentration (IC50) on Des1 (h) was less than 1 µM.

With `N/C(=N\O)c1ccc(Nc2ncc(-c3ccc(C4CC4)cc3)o2)cn1` [Compound 120, 5-((5-(4-Cyclopropylphenyl)oxazol-2-yl)amino)-N′-hydroxypicolinimidamide], in experiment [1], the inhibition at 1 µM is 40 to 50% and the inhibition at 10 µM was 40 to 50%. On Des1 (h), the inhibition at 1 µM worked out at 10% and the IC50 is greater than 1 µM.

Regarding `CN(O)C(=O)c1ccc(Nc2ncc(-c3ccc(C(F)(F)F)cc3)o2)cn1` [Example 20, N-Nydroxy-N-methyl-5-((5-(4-(trifluoromethyl)phenyl)oxazol-2-yl)amino)picolinamide], in experiment [1], the inhibition at 1 µM was in the range of 10 to 20% and the inhibition at 10 µM was 70 to 80%. At Des1 (h), the IC50 was less than 0.1 µM.

In experiment [1], `O=c1cc(Nc2ncc(-c3ccc(C(F)(F)F)cc3)o2)ccn1O` [Example 23, 1-(Hydroxy)-4-((5-(4-(trifluoromethyl)phenyl)oxazol-2-yl)amino)pyridin-2(1H)-one] registered an inhibition at 1 µM of 30 to 40% and an inhibition at 10 µM greater than 90%. Further, the IC50 on Des1 (h) is 0.001 to 0.01 µM.

As to `N/C(=N\O)c1ccc(Nc2ncn(-c3ccc(C(F)(F)F)cc3)n2)cn1` [Example 24, N′-Hydroxy-5-((1-(4-(trifluoromethyl)phenyl)-1H-1,2,4-triazol-3yl)amino)picolinimidamide], in experiment [1], the inhibition at 5 µM is 50 to 60%. Besides, on Des1 (h), the half-inhibitory concentration (IC50) was in the range of 0.01 to 0.1 µM.

As to `Oc1cnc(Nc2ncc(-c3ccc(C(F)(F)F)cc3)o2)cc1O` [Example 29, 6-((5-(4-(Trifluoromethyl)phenyl)oxazol-2-yl)amino)pyridine-3,4-diol], in experiment [1], the inhibition at 1 µM was greater than 90% and the inhibition at 10 µM is greater than 90%. On Des1 (h), the concentration for half-maximal inhibition (IC50) was less than 1 µM.

With `N/C(=N\O)c1nnc(Nc2ncc(-c3ccc(C(F)(F)F)cc3)o2)cc1O` [Example 42, N′,4-Dihydroxy-6-((5-(4-(trifluoromethyl)phenyl)oxazol-2-yl)amino)pyridazine-3-carboximidamide], in experiment [1], the inhibition at 1 µM was in the range of 10 to 20% and the inhibition at 10 µM is 40 to 50%. Moreover, on Des1 (h), the IC50 lay within 0.001 to 0.01 µM.

In experiment [1], `N/C(=N\O)c1cnc(Nc2ncc(-c3ccc(C(F)(F)F)cc3)o2)cn1` [Example 54, N′-Hydroxy-5-((5-(4-(trifluoromethyl)phenyl)oxazol-2-yl)amino)pyrazine-2-carboximidamide] had an inhibition at 1 µM of 70 to 80% and an inhibition at 10 µM of 80 to 90%. The IC50 on Des1 (h) was in the range of 0.1 to 1 µM.

As to `N/C(=N\O)c1ncc(Nc2ncc(-c3ccc(C(F)(F)F)cc3)o2)cn1` [Example 55, N′-Hydroxy-5-((5-(4-(trifluoromethyl)phenyl)oxazol-2-yl)amino)pyrimidine-2-carboximidamide], in experiment [1], the inhibition at 1 µM was 20 to 30% and the inhibition at 10 µM lay in the range of 40 to 50%. Further, the IC50 on Des1 (h) is less than 1 µM.

In experiment [1], `N/C(=N\O)c1cnc(Nc2ncc(-c3ccc(C(F)(F)F)cn3)o2)cn1` [Example 57, N′-Hydroxy-5-((5-(5-(trifluoromethyl)pyridin-2-yl)oxazol-2-yl)amino)pyrazine-2-carboximidamide] displayed an inhibition at 1 µM of 1 to 10% and an inhibition at 10 µM of 50 to 60%. In addition, the IC50 at Des1 (h) is less than 1 µM.

On to `N/C(=N/O)c1cnc(Nc2ncc(-c3ccc(OC(F)(F)F)cc3)o2)cn1` [Example 70, N′-Hydroxy-5-((5-(4-(trifluoromethoxy)phenyl)oxazol-2-yl)amino)pyrazine-2-carboximidamide], for which the inhibition at 5 µM in experiment [1] is greater than 90%. Also, the IC50 on Des1 (h) is less than 1 µM.

On to `N/C(=N\O)c1ccc(Nc2cnn(-c3ccc(C(F)(F)F)cn3)c2)cn1` [Example 72, N′-Hydroxy-5-((1-(5-(trifluoromethyl)pyridin-2-yl)-1H-pyrazol-4-yl)amino)picolinimidamide], for which, in experiment [1], the inhibition at 1 µM is 40 to 50% and the inhibition at 5 µM lay in the range of 50 to 60%. For the same compound, at Des1 (h), the IC50 is less than 1 µM.

Turning to `N/C(=N\O)c1ccc(Nc2ccn(-c3ccc(C(F)(F)F)cn3)n2)cn1` [Example 73, N′-Hydroxy-5-((1-(5-(trifluoromethyl)pyridin-2-yl)-1H-pyrazol-3-yl)amino)picolinimidamide], the inhibition at 5 µM in experiment [1] was greater than 90%. In addition, the IC50 on Des1 (h) is less than 1 µM.

Regarding `N/C(=N\O)c1ccc(Nc2ccn(-c3ccc(C(F)(F)F)cc3)n2)cn1` [Example 74, N′-Hydroxy-5-((1-(4-(trifluoromethyl)phenyl)-1H-pyrazol-3-yl)amino)picolinimidamide], in experiment [1], the inhibition at 5 µM was in the range of 80 to 90%. For the same compound, the 50% inhibitory concentration (IC50) at Des1 (h) is less than 1 µM.

Consider `N/C(=N/O)c1ccc(Nc2cc(-c3ccc(C(F)(F)F)cn3)no2)cn1` [Example 75, N′-Hydroxy-5-((3-(5-(trifluoromethyl)pyridin-2-yl)isoxazol-5-yl)amino)picolinimidamide], for which the inhibition at 5 µM in experiment [1] is greater than 90%. Further, the IC50 at Des1 (h) was less than 1 µM.

As to `N/C(=N\O)c1ccc(Nc2nc(-c3ccc(C(F)(F)F)cc3)no2)cn1` [Example 82, N′-hydroxy-5-((3-(4-(trifluoromethyl)phenyl)-1,2,4-oxadiazol-5-yl)amino)picolinimidamide], the inhibition at 5 µM in experiment [1] is greater than 90%. At Des1 (h), the IC50 was less than 1 µM.

For the compound `N/C(=N\O)c1ccc(Nc2nc(-c3ccc(C(F)(F)F)cn3)no2)cn1` [Example 84, N′-Hydroxy-5-((3-(5-(trifluoromethyl)pyridin-2-yl)-1,2,4-oxadiazol-5-yl)amino)picolinimidamide], in experiment [1], the inhibition at 5 µM lay in the range of 80 to 90%. For the same compound, at Des1 (h), the inhibition at 1 µM was 45% and the IC50 is greater than 1 µM.

The compound `N/C(=N\O)c1ccc(Nc2nc(-c3ccc(OC(F)(F)F)cc3)no2)cn1` [Example 86, N′-Hydroxy-5-((3-(4-(trifluoromethoxy)phenyl)-1,2,4-oxadiazol-5-yl)amino)picolinimidamide] registered an inhibition at 5 µM in experiment [1] greater than 90%. The half-inhibitory concentration (IC50) at Des1 (h) is less than 1 µM.

As a reminder, the inhibition is the share of the control response that was lost under treatment. As usually defined, the IC50 is the point on the concentration scale where inhibition reaches its midpoint.
